# From PMC4082664 (Alcoholism, clinical and experimental research, 2011)
# Where two headings read alike, the source gives them in different places.
# Legend:
# [1] = biological target: T1, CYP3A4 (Homo sapiens, UniProt P08684); assay: Spectral binding; conditions: for Type of spectral binding with CYP3A4: no ethanol; for δAmax (maximum spectral change): 0.5 µM CYP3A4, 25°C, pH 7.4; for Type of spectral binding with CYP3A4 at low concentrations: low concentrations (<0.5 µM), data not shown
# [2] = biological target: T1, CYP3A4; conditions: ref Kumar et al., 2010; cited from earlier work
# T1 sequence (P08684 whole entry): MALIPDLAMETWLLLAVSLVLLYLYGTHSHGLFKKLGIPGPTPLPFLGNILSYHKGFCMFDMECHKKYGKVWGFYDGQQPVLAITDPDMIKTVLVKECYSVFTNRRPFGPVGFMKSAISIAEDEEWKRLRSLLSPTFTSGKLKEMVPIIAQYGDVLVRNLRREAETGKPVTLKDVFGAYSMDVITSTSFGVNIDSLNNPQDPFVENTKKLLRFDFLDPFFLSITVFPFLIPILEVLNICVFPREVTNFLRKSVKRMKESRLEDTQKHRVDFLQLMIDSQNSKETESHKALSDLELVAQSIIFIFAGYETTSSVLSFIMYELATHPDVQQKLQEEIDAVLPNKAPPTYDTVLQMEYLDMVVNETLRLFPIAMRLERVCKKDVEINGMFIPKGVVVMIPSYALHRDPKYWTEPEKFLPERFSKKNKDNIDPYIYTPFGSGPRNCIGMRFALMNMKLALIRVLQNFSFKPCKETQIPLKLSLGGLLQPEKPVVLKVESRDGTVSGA
Structure (SMILES),Type of spectral binding with CYP3A4 [1],δAmax (maximum spectral change) ([1]; 20 mM ethanol),δAmax (maximum spectral change) ([1]; No ethanol),Type of spectral binding with CYP3A4 at low concentrations [1],Type of spectral binding with CYP3A4 [2]
CC(C)CN(C[C@@H](O)[C@H](Cc1ccccc1)NC(=O)O[C@H]1CCOC1)S(=O)(=O)c1ccc(N)cc1 [Amprenavir],did not show detectable spectral binding,,,,
COC(=O)N[C@H](C(=O)N[C@@H](Cc1ccccc1)[C@@H](O)CN(Cc1ccc(-c2ccccn2)cc1)NC(=O)[C@@H](NC(=O)OC)C(C)(C)C)C(C)(C)C [Atazanavir],type I,0.012 ± 0.0002,0.013 ± 0.0003,weak type II,
CC(C)(C)NC(=O)[C@@H]1C[C@@H]2CCCC[C@@H]2CN1C[C@@H](O)[C@H](Cc1ccccc1)NC(=O)[C@H](CC(N)=O)NC(=O)c1ccc2ccccc2n1 [Saquinavir],type I,0.006 ± 0.0003,0.011 ± 0.0001,,
CCC[C@@]1(CCc2ccccc2)CC(O)=C([C@H](CC)c2cccc(NS(=O)(=O)c3ccc(C(F)(F)F)cn3)c2)C(=O)O1 [Tipranavir],type I,0.012 ± 0.0003,0.015 ± 0.0003,weak type II,
CCO [ethanol],,,,,type I
Cc1c(O)cccc1C(=O)N[C@@H](CSc1ccccc1)[C@H](O)CN1C[C@H]2CCCC[C@H]2C[C@H]1C(=O)NC(C)(C)C [nelfinavir],,,,,high-affinity type I
